We go through 2 compounds from patent US5276034A, “Substituted imidazolyl-alkyl-piperazine and -diazepine derivatives” (Syntex Pharmaceutical Ltd., priority 1991, dated 1994).

For test [1], the system named is barium-stimulated intestinal transit of the charcoal meal. In words: Irritable bowel syndrome: intestinal transit of a charcoal meal in conscious mice, barium chloride stimulated. The class given is in vivo, mouse. As to conditions: barium chloride 300 mg/kg oral; effect of Ba^+2 on transit. The method, then:
The test used is a modification of the method of Macht and Barba-Gose, J. Amer. Pharm. […] In the present model, intestinal transit in conscious mice (15-20 g) was accelerated with an oral dose of barium chloride (300 mg/kg) administered at the same time as the charcoal meal. The animals were sacrificed 10 minutes later and the distance travelled by the charcoal measured. 1-diphenyl-methyl-4-[(2-(4-methylphenyl)-5-methylimidazol-4-yl)methyl]-piperazine trihydrochloride was given as a 15 minute oral pre-treatment and its effect on non-stimulated or barium-stimulated intestinal transit of the charcoal meal was calculated.

The conditions of test [2]: in vivo; cited from earlier work.

Take `[Ba+2].[Cl-].[Cl-]` [barium chloride, reference compound]: the “% Change Ba^+2” value in test [1] was “+93%”.

For the compound `Clc1ccccc1CN1CCc2sccc2C1` [ticlopidine], the “risk of a second ischemic event” value in test [2] is reported as “demonstrated to reduce the risk of a second ischemic event”.
